Data: US12325676B2, “Cationic lipid compound and composition for delivery of nucleic acids and use thereof” (Shenzhen Rhegen Biotechnology Co., Ltd., priority 2022, dated 2025)

Assays:
[1] = Encapsulation rate of mRNA-loaded lipid nanoparticles (Ribogreen kit); assay type: physicochemical
Method: (§1) Luciferase mRNA was diluted in 10-100 mM citrate buffer at pH 4.0; the lipid components (cationic lipids shown in the present disclosure: DSPC:cholesterol:PEG lipids (DMG-PEG2000)) were dissolved in ethanol at a molar ratio of 50:10:38.5:1.5.
(§2) 3 mL of a mRNA buffer and 1 mL of a lipid solution were loaded into two 5 mL syringes respectively, and the syringes were installed on a microfluidic syringe pump. Chips were connected to the syringes and syringe pump flow rate was set. Clicking the start button of the syringe pump caused injection into the chip at a flow rate ratio of 3:1. Under observation of the color of the product at the exit of the chip, after discarding the first 5 milky white droplets (about 100 μL), the back-end sample was collected into an EP tube. The collected product was placed in a dialysis bag and dialyzed for 6 h (MWCO: 100 KDa) in 10 mM PBS (pH 7.4) intervals. Subsequently, after being concentrated by ultrafiltration to the desired concentration, the lipid nanoparticles were filtered through a 0.22 μm sterile filter and then stored at 4° C.
(§3) Tests were performed to calculate the encapsulation rate of the products according to the instructions of Ribogreen kit. Particle size and polydispersity index (PDI) detection as well as zeta potential analysis was performed on a Malvern Zetasizer nano instrument using standard assays.

[2] = Particle size, PDI and zeta potential of mRNA-loaded lipid nanoparticles (Malvern Zetasizer nano); assay type: physicochemical
Method: as §1, §2, §3

BALB/c mice [3] = experiment: In vivo expression of luciferase mRNA delivered by LNP, tail intravenous injection, small animal imaging; details: Table 3, 5 μg mRNA, female BALB/c mice, DLin-MC3-DMA = 100
Method: LUC-mRNA-lipid nanoparticles containing 5 μg mRNA (see SEQ ID NO: 1 in the Patent Application Publication CN114380724A for the corresponding nucleotide sequence of LUC-mRNA) were injected via tail intravenous injection in 6-8 week old female BALB/c mice, prepared as in Example 19. 100 μg of D-Luciferin Potassium Salt was injected via tail intravenous injection into the mice at specific time points and assayed using the PerkinElmer Small Animal Imaging System. Fluc is commonly used in mammalian cell cultures to measure gene expression and cell viability, and it emits biological fluorescent light in the presence of the substrate […]. The basic characteristics of the mRNA used include ARCA cap structure, polyA tail length of 120 nt, and complete substitution of pseudouridine.
The effect of delivering luciferase mRNA using more cationic lipids were validated according to the methods of Example 20 and Example 21.

BALB/c mice [4] = experiment: In vivo EPO protein expression after tail i.v. injection of EPO-mRNA LNP, serum ELISA; details: 6 hours after tail i.v. injection of 20 μg EPO-mRNA-lipid nanoparticles, female Balb/c mice
Method: In the example, the effects of in vivo transfection of erythropoietin (EPO) by various cationic liposomes were compared. Nanoparticles were prepared in the same manner as in Example 20, and the nucleotide sequence corresponding to the EPO mRNA used is given in CN114380724B, SEQ ID NO:2. After preparation, 20 μg of EPO-mRNA-lipid nanoparticles were injected via tail intravenous injection in 6-8 week female Balb/c mice. 6 hours later the mice were subjected to blood sampling from the eye frame. After centrifugation to separate the serum, EPO protein expression was determined using ELISA. The basic characteristics of the mRNA used include ARCA cap structure, polyA tail length of 100-120 nt, and complete substitution of pseudouridine.

[5] = Encapsulation rate of mRNA-loaded lipid nanoparticles (Ribogreen kit); assay type: physicochemical; details: Table 4 batch; EPO mRNA LNP prepared as Example 20
[6] = Particle size, PDI and zeta potential of mRNA-loaded lipid nanoparticles (Malvern Zetasizer nano); assay type: physicochemical; details: Table 4 batch; EPO mRNA LNP prepared as Example 20
C57BL6 mice = experiment: Intratumoral injection of luciferase mRNA LNP, fluorescence of tumor and liver; assay type: in vivo; details: luciferase mRNA LNP 25 μL/2.5 μg intratumoral, B 16F 10 tumor in C57BL6 mice, imaging after 24 h (FIGS. 6 and 7)
Method: Different types of lipid nanoparticles encapsulating luciferase mRNA in were prepared accordance with the preparation of Example 20. Tumors were injected subcutaneously in the right abdomen of 6-8 week female C57BL6 mice at 5×10^5 B 16F 10 cells (from CAS Cell Bank, CSTR:19375.09.3101MOUTCM36)/mouse, and tumor growth was observed and recorded periodically. On the 8th day after tumor inoculation, the length (L, mm) and width (D, mm) of the tumors were measured by using a vernier caliper, and the tumor volume (V) was calculated according to the formula V=(L×D^2)/2. Mice with tumor volume in the range of 80-120 mm^3 were taken and randomly grouped, and intratumorally injected with different types of lipid nanoparticles encapsulating luciferase mRNA at the volume of 25 μL/2.5 μg. Anatomical imaging was performed after 24 h to detect the fluorescence intensity of the mouse liver and tumor (as shown in FIGS. 6 and 7). […] This indicates better in situ tumor expression and lower liver […], which is suitable for encapsulation and delivery of some tumor therapy-related nucleic acid drugs.

[7] = Table 1, Luciferase mRNA LNP, cationic lipid:DSPC:cholesterol:DMG-PEG2000 50:10:38.5:1.5 molar
[8] = Table 3 batch, luciferase mRNA LNP prepared as Example 20

Row | Encapsulation rate (%) [1, 7] [%] | PDI [2, 7] | Particle size (nm) [2, 7] [nm] | Zeta potential (mV) [2, 7] [mV] | Encapsulation rate (%) [1, 8] [%] | PDI [2, 8] | Particle size (nm) [2, 8] [nm] | Encapsulation rate (%) [5] [%] | PDI [6] | Particle size (nm) [6] [nm] | SMILES | relative fluorescence intensity (%) (BALB/c mice [3]) | EPO concentration (BALB/c mice [4]) [pg/mL] | brightness (fluorescence intensity) at the tumor (C57BL6 mice) | brightness (fluorescence intensity) in the liver (C57BL6 mice)
1 | 94.1 | 0.24 | 122.8 | 7.09 | – | – | – | – | – | – | CCCCCCCCCCSCCC(=O)OCCCCCN(CCCCCCCC(=O)OC(CCCCCCCC)CCCCCCCC)CCN(C)C [Compound 57] | – | – | – | –
2 | – | – | – | – | 97.0 | 0.10 | 75.4 | 96.5 | 0.11 | 81.7 | CCCCCCCCC(CCCCCCCC)OC(=O)CCCCCCCN(CCO)CCCCCCCOC(=O)C(C)COCCCCCC (stereo not drawn) [Compound 23] | 764 ± 39 | 4.11e+07 | – | –
3 | 96.4 | 0.21 | 104.1 | −2.82 | 97.1 | 0.10 | 71.1 | 95.5 | 0.17 | 82.5 | CCCCCCCCSCC(C)C(=O)OCCCCCN(CCO)CCCCCCCOC(=O)C(CCCCCCCC)CCCCCCCC (stereo not drawn) [Compound 44] | 843 ± 52 | 4.89e+07 | – | –
4 | 95.7 | 0.22 | 119.0 | −3.27 | – | – | – | – | – | – | CCCCCCCCC(CCCCCCCC)OC(=O)CCCCCCCN(CCO)CCCCCCC(=O)OCCOCCCCCCC [Compound 14] | – | – | – | –
5 | – | – | – | – | 98.0 | 0.11 | 91.0 | 95.0 | 0.14 | 75.3 | CCCCCCCCC(CCCCCCCC)OC(=O)CCCCCCCN(CCO)CCCCCCCOC(=O)C(C)CSCCCCCC (stereo not drawn) [Compound 51] | 734 ± 51 | 6.68e+07 | higher brightness at the tumor | lower brightness in the liver
6 | 87.5 | 0.10 | 113.9 | 1.95 | – | – | – | – | – | – | CCCCCCCCCCOCC(CC)C(=O)OCCCCCN(CCO)CCCCCCCC(=O)OC(CCCCCCCC)CCCCCCCC (stereo not drawn) [Compound 3] | – | – | – | –
7 | 94.9 | 0.17 | 123.4 | −7.02 | – | – | – | – | – | – | CCCCCCCCCCSCCOC(=O)CCCCCCCN(CCO)CCCCCCCC(=O)OC(CCCCCCCC)CCCCCCCC [Compound 41] | – | – | – | –
8 | 83.7 | 0.21 | 94.4 | 0.39 | – | – | – | – | – | – | CCCCCCCCCCOCC(CCC)C(=O)OCCCCCN(CCO)CCCCCCCC(=O)OC(CCCCCCCC)CCCCCCCC (stereo not drawn) [Compound 4] | – | – | – | –
9 | – | – | – | – | 95.6 | 0.20 | 90.9 | 96.5 | 0.12 | 75.4 | CCCCCCCCOCC(C)C(=O)OCCCCCN(CCO)CCCCCCCOC(=O)C(CCCCCCCC)CCCCCCCC (stereo not drawn) [Compound 16] | 574 ± 102 | 3.01e+07 | – | –
10 | 93.9 | 0.11 | 98.4 | 0.55 | – | – | – | – | – | – | CCCCCCCCSCC(CC)C(=O)OCCCCCN(CCO)CCCCCCCC(=O)OC(CCCCCCCC)CCCCCCCC (stereo not drawn) [Compound 36] | – | – | – | –
11 | 95.6 | 0.11 | 101.3 | −4.12 | – | – | – | – | – | – | CCCCCCCCSC(CCCCCC)C(=O)OCCCCCCN(CCO)CCCCCCOC(=O)C(CCCCCC)CCCCCCCC (stereo not drawn) [Compound 46] | – | – | – | –
12 | – | – | – | – | 96.8 | 0.15 | 80.9 | 93.9 | 0.15 | 81.0 | CCCCCCCCC(CCCCCCCC)C(=O)OCCCCCCCN(CCO)CCCCCCCOC(=O)C(C)CSCCCCCC (stereo not drawn) [Compound 45] | 559 ± 33 | 3.46e+07 | – | –
13 | 91.1 | 0.13 | 102.3 | 7.37 | – | – | – | – | – | – | CCCCCCCCSCCOC(=O)CCCCCCCN(CCCCCCCC(=O)OC(CCCCCCCC)CCCCCCCC)CCN(C)C [Compound 55] | – | – | – | –
14 | 92.5 | 0.10 | 90.9 | −0.15 | 97.6 | 0.11 | 68.2 | 96.9 | 0.09 | 74.0 | CCCCCCCCC(CCCCCCCC)C(=O)OCCCCCCCN(CCO)CCCCCCCOC(=O)C(C)COCCCCCC (stereo not drawn) [Compound 17] | 686 ± 45 | 3.25e+07 | – | –
15 | 95.9 | 0.04 | 127.6 | 5.29 | – | – | – | – | – | – | CCCCCCCCOCC(C)C(=O)OCCCCCN(CCCCCCCC(=O)OC(CCCCCCCC)CCCCCCCC)CCN(CC)CC (stereo not drawn) [Compound 28] | – | – | – | –
16 | 92.5 | 0.10 | 94.2 | −0.14 | – | – | – | – | – | – | CCCCCCCCSCC(C)C(=O)OCCCCCN(CCCO)CCCCCCCC(=O)OC(CCCCCCCC)CCCCCCCC (stereo not drawn) [Compound 48] | – | – | – | –
17 | 95.6 | 0.03 | 105.5 | −1.31 | – | – | – | – | – | – | CCCCCCCCCCSCCC(=O)OCCCCCN(CCO)CCCCCCCC(=O)OC(CCCCCCCC)CCCCCCCC [Compound 29] | – | – | – | –
18 | 87.8 | 0.12 | 97.3 | 0.49 | – | – | – | – | – | – | CCCCCCCCCCOCC(C)C(=O)OCCCCCN(CCO)CCCCCCCC(=O)OC(CCCCCCCC)CCCCCCCC (stereo not drawn) [Compound 2] | – | – | – | –
19 | 63.9 | 0.17 | 95.6 | 0.79 | – | – | – | – | – | – | CCCCCCCCOCC(CCCC)C(=O)OCCCCCN(CCO)CCCCCCCC(=O)OC(CCCCCCCC)CCCCCCCC (stereo not drawn) [Compound 6] | – | – | – | –
20 | 95.7 | 0.11 | 121.2 | −0.26 | – | – | – | – | – | – | CCCCCCCCCCSCC(C)C(=O)OCCCCCN(CCO)CCCCCCCC(=O)OC(CCCCCCCC)CCCCCCCC (stereo not drawn) [Compound 30] | – | – | – | –
